The record followed here is patent US9040579B2, “Combination therapy using coenzyme Q10 and a caffeic acid-derived ester” (priority 2010, dated 2015).

The subject of this test is Mice that over-expressed human Cu,Zn superoxide dismutase-1 mutant G93A. Briefly: Survival of ALS model mice treated by oral gavage. The class given is in vivo. The following applies: G93A SOD1 mice; single-agent control treatment; untreated mice 125 days. The method, then: Compound 1 was dissolved in a PEG solvent (30% PEG 400, 5% EtOH, 5% DMSO, 1 mg/ml). The solution was mixed with Coenzyme Q10 in liposome (5 mg/ml, NuNaturals).
Mice that over-expressed human Cu,Zn superoxide dismutase-1 mutant G93A to develop a delayed and progressive motor neuron disease similar to human amyotrophic lateral sclerosis (ALS) were used in this assay.
The mixture of Compound 1 and Coenzyme Q10 were administered by gavage (oral) once a day (final dosage: 10 mg/kg of Compound 1 and 50 mg/kg of Coenzyme Q10) to 5 mice. The average survival time for the mice was 156 days.
As control, mice were subject to Compound 1 treatment, Coenzyme Q10 treatment, or no Compound 1 or Coenzyme Q10 treatment. The average survival time was 138 days for Compound 1-treated mice, 129 days for Coenzyme Q10 treatment mice, and 125 days for no Compound 1 or Coenzyme Q10-treated mice.

Consider `COC1=C(OC)C(=O)C(C/C=C(\C)CC/C=C(\C)CC/C=C(\C)CC/C=C(\C)CC/C=C(\C)CC/C=C(\C)CC/C=C(\C)CC/C=C(\C)CC/C=C(\C)CCC=C(C)C)=C(C)C1=O` [Coenzyme Q10], for which the average survival time stood at 129 days.
Next, `O=C(/C=C/c1ccc(O)c(O)c1)OCCc1ccccc1` [Compound 1, caffeic acid phenethyl ester]: 138 days.
